# Experiments:
# FGFR2 = FGFR2 (Homo sapiens (Human), UniProt P21802); experiment: FGFR2 Biochemical Caliper Assay
# Procedure: Compounds of the present invention were also tested in a FGFR2 Biochemical Caliper Assay. Compounds were prepared in 10 mM DMSO solution and serially diluted into 11 concentrations by 3-fold dilution. […] 5 uL of ATP solution (100 uM) was added to start the reaction and the plate was incubated for 90 minutes, then 70 uL of stopping buffer (0.5M EDTA) was added to terminate the reaction. Each well was analyzed using EZ reader.
# SNU16 cells = experiment: SNU16 Cancer Cell Line Proliferation Assay; type: cell-based; details: SNU-16 cells
# Method in brief: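 SNU16 cells were seeded, held 24 h at 37 degrees, then dosed with an 11-point 3-fold dilution series prepared from a 10 mM DMSO stock. After 96 h incubation, viability was read by CellTiter Glo luminescence.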
# Sequence of FGFR2 (P21802 22-821): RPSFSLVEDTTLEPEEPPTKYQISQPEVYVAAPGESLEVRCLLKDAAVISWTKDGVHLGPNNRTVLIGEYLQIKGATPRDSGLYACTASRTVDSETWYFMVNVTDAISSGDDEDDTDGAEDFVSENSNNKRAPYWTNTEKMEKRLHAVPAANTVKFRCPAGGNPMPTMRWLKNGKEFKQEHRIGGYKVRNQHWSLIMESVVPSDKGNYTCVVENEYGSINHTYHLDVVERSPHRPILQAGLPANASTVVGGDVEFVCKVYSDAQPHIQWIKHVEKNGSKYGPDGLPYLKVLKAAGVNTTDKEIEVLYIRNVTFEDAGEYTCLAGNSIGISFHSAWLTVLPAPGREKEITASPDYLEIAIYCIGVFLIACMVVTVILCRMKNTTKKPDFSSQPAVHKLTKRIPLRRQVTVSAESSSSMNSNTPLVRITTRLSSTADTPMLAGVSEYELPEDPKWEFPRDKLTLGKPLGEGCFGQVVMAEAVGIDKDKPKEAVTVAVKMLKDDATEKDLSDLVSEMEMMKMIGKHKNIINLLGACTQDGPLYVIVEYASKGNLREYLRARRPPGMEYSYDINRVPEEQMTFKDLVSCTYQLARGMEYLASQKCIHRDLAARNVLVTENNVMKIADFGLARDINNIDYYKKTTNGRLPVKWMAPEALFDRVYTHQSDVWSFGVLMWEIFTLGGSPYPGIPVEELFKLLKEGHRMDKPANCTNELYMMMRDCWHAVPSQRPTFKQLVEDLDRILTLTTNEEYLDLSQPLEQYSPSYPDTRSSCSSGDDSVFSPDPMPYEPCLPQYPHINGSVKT
IC50 (FGFR2) [nM],IC50 (SNU16 cells; Homo sapiens) [nM],IC50 (SNU16 cells) [nM],Compound
250 to 1000,250 to 1000,–,C=Cc1ncc(-c2c(-c3ccc(C(=O)N4CCCC4)cc3)c3c(N)ncnc3n2C)cn1 [Example 554]
< 100,≤ 100,–,Cn1c(-c2ccc(NC(=O)CCl)cc2)c(-c2ccc(C(=O)N3CCCC3)cc2)c2c(N)ncnc21 [Example 558]
100 to 250,≤ 100,–,C=C(C)C(=O)Nc1ccc(-c2c(-c3ccc(C(=O)N4CC5CC4C5)cc3F)c3c(N)ncnc3n2C)cc1 [Example 562]
1000 to 100000,250 to 1000,–,C=C(C)C(=O)Nc1ccc(-c2c(-c3ccc(C(=O)N4CCCC4)cc3C#N)c3c(N)ncnc3n2C)cc1 [Example 563]
1000 to 100000,250 to 1000,–,C=C(C)C(=O)Nc1ccc(-c2c(-c3ccc(Oc4nccc(C)n4)cc3C#N)c3c(N)ncnc3n2C)cc1 [Example 564]
< 100,≤ 100,–,C=C(C)C(=O)Nc1ccc(-c2c(-c3ccc(C(=O)NC4CC(F)C4)c(OC)c3)c3c(N)ncnc3n2C)cc1 (stereo not shown) [Example 566]
100 to 250,≤ 100,–,C=C(C)C(=O)Nc1ccc(-c2c(-c3ccc(C(=O)NC4CC(F)C4)c(F)c3)c3c(N)ncnc3n2C)cc1 (stereo not shown) [Example 567]
< 100,≤ 100,–,C=C(C)C(=O)Nc1ccc(-c2c(-c3ccc(C(=O)NCC(F)(F)F)c(OC)c3)c3c(N)ncnc3n2C)cc1 [Example 568]
100 to 250,100 to 250,–,C=C(C)C(=O)Nc1ccc(-c2c(-c3ccc(C(=O)N4CCCC4)cc3OC)c3c(N)ncnc3n2C)cc1 [Example 569]
< 100,≤ 100,–,C=C(C)C(=O)Nc1ccc(-c2c(-c3c(F)cc(Oc4nccc(C)n4)cc3F)c3c(N)ncnc3n2C)cc1 [Example 570]
1000 to 100000,250 to 1000,–,C=C(C)C(=O)Nc1ccc(-c2c(-c3ccc(Oc4nccc(C)n4)cc3C(F)F)c3c(N)ncnc3n2C)cc1 [Example 571]
< 100,≤ 100,–,C=C(C)C(=O)Nc1ccc(-c2c(-c3ncc(Oc4nccc(C)n4)cc3F)c3c(N)ncnc3n2C)cc1 [Example 572]
1000 to 100000,250 to 1000,–,C=Cc1ncc2cc(-c3c(-c4ccc(C(=O)N5CCCC5)cc4)c4c(N)ncnc4n3C)ccc2n1 [Example 573]
< 100,≤ 100,–,C=C(C)C(=O)Nc1ccc(-c2c(-c3ccc(C(=O)NCC4CCC4)c(F)c3)c3c(N)ncnc3n2C)nc1 [Example 589]
< 100,≤ 100,–,Cn1c(-c2ccc(NC(=O)C3=CCC3)cc2)c(-c2ccc(C(=O)NCC3CCC3)c(F)c2)c2c(N)ncnc21 [Example 590]
100 to 250,≤ 100,–,C=C(C)C(=O)Nc1ccc(-c2c(-c3ccc(Oc4nccc(C)n4)c(C(F)F)c3)c3c(N)ncnc3n2C)cc1 [Example 594]
100 to 250,250 to 1000,–,C=Cc1ccc(-c2c(-c3ccc(Oc4nccc(C)n4)cc3)c3c(N)ncnc3n2C)cn1 [Example 598]
< 100,≤ 100,–,C=C(C)C(=O)Nc1ccc(-c2c(-c3ccc(Oc4nccc(C(F)F)n4)cc3)c3c(N)ncnc3n2C)cc1 [Example 600]

# The next lines start with the molecule.
Compound,IC50 (FGFR2) [nM],IC50 (SNU16 cells; Homo sapiens) [nM],IC50 (SNU16 cells) [nM]
C=C(C)C(=O)Nc1ccc(-c2c(-c3ccc(Oc4cccc(C)n4)c(CN(C)C)c3)c3c(N)ncnc3n2C)cc1 [Example 475],1000 to 100000,250 to 1000,–
Cc1cccc(Oc2ccc(-c3c(-c4ccc(NC#N)cc4)n(C)c4ncnc(N)c34)cc2)n1 [Example 476],< 100,≤ 100,–
C=C(C)C(=O)Nc1ccc(-c2c(-c3ccc(Oc4nccc(C)n4)c(C)c3)c3c(N)ncnc3n2C)c(F)c1 [Example 479],< 100,≤ 100,–
C=C(C)C(=O)Nc1ccc(-c2c(-c3ccc(Oc4nccc(C)n4)c(F)c3)c3c(N)ncnc3n2C)c(F)c1 [Example 482],< 100,≤ 100,–
C=C(C)C(=O)Nc1ccc(-c2c(-c3ccc(Oc4nccc(C)n4)c(C)c3)c3c(N)ncnc3n2C)cc1 [Example 484],< 100,≤ 100,–
C=C(CN(C)C)C(=O)Nc1ccc(-c2c(-c3ccc(Oc4cccc(C)n4)cc3)c3c(N)ncnc3n2C)cc1 [Example 485],< 100,≤ 100,–
C=C(C)C(=O)Nc1ccc(-c2c(-c3ccc(C(=O)N4CC5CC5C4)cc3)c3c(N)ncnc3n2C)c(F)c1 (stereo not shown) [Example 487],< 100,≤ 100,–
C=C(C)C(=O)Nc1ccc(-c2c(-c3ccc(Oc4nccc(C)n4)c(F)c3)c3c(N)ncnc3n2CCO)cc1 [Example 490],< 100,≤ 100,–
C=C(C)C(=O)Nc1ccc(-c2c(-c3ccc(Oc4cncc(C)n4)c(F)c3)c3c(N)ncnc3n2C)cc1 [Example 492],< 100,≤ 100,–
C=C(C)C(=O)Nc1ccc(-c2c(-c3ccc(Oc4nccc(C)n4)c(F)c3)c3c(N)ncnc3n2CC)cc1 [Example 494],< 100,≤ 100,–
C=C(C)C(=O)Nc1ccc(-c2c(-c3cc(C)c(Oc4nccc(C)n4)c(OC)c3)c3c(N)ncnc3n2C)cc1 [Example 497],100 to 250,≤ 100,–
C=C(C)C(=O)Nc1ccc(-c2c(-c3ccc(Oc4nccc(CO)n4)c(F)c3)c3c(N)ncnc3n2C)cc1 [Example 498],< 100,≤ 100,–
C=C(C)C(=O)Nc1ccc(-c2c(-c3ccc(Oc4nccc(C)n4)c(F)c3)c3c(N)ncnc3n2C(C)C)cc1 [Example 499],< 100,≤ 100,–
C=C(C)C(=O)Nc1ccc(-c2c(-c3ccc(Oc4nccc(C)n4)c(F)c3)c3c(N)ncnc3n2C)c(COC)c1 [Example 500],< 100,≤ 100,–
C=C(C)C(=O)Nc1ccc(-c2c(-c3ccc(Oc4nccc(C)n4)c(F)c3)c3c(N)ncnc3n2C)c(OC)c1 [Example 502],< 100,≤ 100,–
C=C(C)C(=O)Nc1ccc(-c2c(-c3ccc(Oc4nccc(C#N)n4)c(F)c3)c3c(N)ncnc3n2C)cc1 [Example 503],< 100,≤ 100,–
C=C(C)C(=O)Nc1ccc(-c2c(-c3ccc(Oc4nccc(C)n4)c(Cl)c3)c3c(N)ncnc3n2C)cc1 [Example 505],< 100,≤ 100,–
C=C(C)C(=O)Nc1ccc(-c2c(-c3ccc(Oc4ccnc(C)n4)c(Cl)c3)c3c(N)ncnc3n2C)cc1 [Example 506],250 to 1000,250 to 1000,–
C=C(C)C(=O)Nc1ccc(-c2c(-c3ccc(Oc4nccc(OC)n4)c(F)c3)c3c(N)ncnc3n2C)cc1 [Example 507],< 100,≤ 100,–

Compound,IC50 (FGFR2) [nM],IC50 (SNU16 cells; Homo sapiens) [nM],IC50 (SNU16 cells) [nM]
C=C(C)C(=O)Nc1ccc(-c2c(-c3ccc(Oc4nccc(C)n4)c(C#N)c3)c3c(N)ncnc3n2C)cc1 [Example 508],< 100,≤ 100,–
C=C(C)C(=O)Nc1ccc(-c2c(-c3ccc(Oc4nccc(COC)n4)c(F)c3)c3c(N)ncnc3n2C)cc1 [Example 511],< 100,≤ 100,–
Cn1c(-c2ccc(NC(=O)C3=CCC3)cc2)c(-c2ccc(C(=O)N3CCCC3)cc2)c2c(N)ncnc21 [Example 512],< 100,≤ 100,–
C=C(C)C(=O)Nc1ccc(-c2c(-c3ccc(Oc4nccc(C)n4)c(F)c3)c3c(N)ncnc3n2C)c(CO)c1 [Example 513],< 100,≤ 100,–
C=C(C)C(=O)Nc1ccc(-c2c(-c3ccc(Oc4nccc(C(F)F)n4)c(F)c3)c3c(N)ncnc3n2C)cc1 [Example 514],< 100,≤ 100,–
C=C(C)C(=O)Nc1ccc(-c2c(-c3ccc(Oc4ncc(F)c(C)n4)c(F)c3)c3c(N)ncnc3n2C)cc1 [Example 515],< 100,≤ 100,–
C=C(C)C(=O)Nc1ccc(-c2c(-c3ccc(C(=O)N4CCCC4)cc3)c3c(N)ncnc3n2C)c(C2CC2)c1 [Example 520],100 to 250,100 to 250,–
C=C(C)C(=O)Nc1ccc(-c2c(-c3ccc(Oc4nccc(C)n4)cc3)c3c(N)ncnc3n2C)c(CC)c1 [Example 521],< 100,–,≤ 100
C=C(CN(C)C)C(=O)Nc1ccc(-c2c(-c3ccc(C(=O)N4CCCC4)cc3)c3c(N)ncnc3n2C)cc1 [Example 522],< 100,≤ 100,–
C=C(C)C(=O)Nc1ccc(-c2c(-c3ccc(Oc4nccc(C)n4)c(F)c3)c3c(N)ncnc3n2C2CCCO2)cc1 (stereo not shown) [Example 524],< 100,≤ 100,–
C=C(C)C(=O)Nc1ccc(-c2c(-c3ccc(Oc4nccc(C)n4)c(F)c3)c3c(N)ncnc3n2C)c(C(F)F)c1 [Example 526],< 100,≤ 100,–
C=C(C)C(=O)Nc1ccc(-c2c(-c3ccc(Oc4nccc(C)n4)c(F)c3)c3c(N)ncnc3n2C)c(C)c1 [Example 529],< 100,≤ 100,–
C=C(C)C(=O)Nc1ccc(-c2c(-c3ccc(Oc4nccc(Cl)n4)c(F)c3)c3c(N)ncnc3n2C)cc1 [Example 530],< 100,≤ 100,–
C=C(C)C(=O)Nc1ccc(-c2c(-c3ccc(Oc4cccc(C)n4)cc3)c3c(N)ncnc3n2C)nc1 [Example 533],< 100,≤ 100,–
C=C(C)C(=O)Nc1ccc(-c2c(-c3ccc(C(=O)N4CCCC4)cc3F)c3c(N)ncnc3n2C)cc1 [Example 537],100 to 250,≤ 100,–
C=C(C)C(=O)Nc1ccc(-c2c(-c3ccc(Oc4cnn(C)c4)cc3)c3c(N)ncnc3n2C)cc1 [Example 541],1000 to 100000,250 to 1000,–
C=C(C)C(=O)Nc1ccc(-c2c(-c3ccc(Oc4nccc(C)n4)cc3F)c3c(N)ncnc3n2C)c(F)c1 [Example 543],< 100,≤ 100,–
C=C(C)C(=O)Nc1ccc(-c2c(-c3cc(F)c(Oc4nccc(C)n4)cc3F)c3c(N)ncnc3n2C)cc1 [Example 546],< 100,≤ 100,–
C=C(C)C(=O)Nc1ccc(-c2c(-c3ccc(Oc4nccc(C)n4)c(F)c3F)c3c(N)ncnc3n2C)cc1 [Example 552],< 100,≤ 100,–

# Reference: patent publication US11780845B2 (Relay Therapeutics, Inc., priority 2019, dated 2023)
